Target: Abl (Homo sapiens, UniProt P00519)
Assay: in vitro kinase assay with active recombinant Abl
Assay type: biochemical

Sequence of Abl (P00519 whole entry): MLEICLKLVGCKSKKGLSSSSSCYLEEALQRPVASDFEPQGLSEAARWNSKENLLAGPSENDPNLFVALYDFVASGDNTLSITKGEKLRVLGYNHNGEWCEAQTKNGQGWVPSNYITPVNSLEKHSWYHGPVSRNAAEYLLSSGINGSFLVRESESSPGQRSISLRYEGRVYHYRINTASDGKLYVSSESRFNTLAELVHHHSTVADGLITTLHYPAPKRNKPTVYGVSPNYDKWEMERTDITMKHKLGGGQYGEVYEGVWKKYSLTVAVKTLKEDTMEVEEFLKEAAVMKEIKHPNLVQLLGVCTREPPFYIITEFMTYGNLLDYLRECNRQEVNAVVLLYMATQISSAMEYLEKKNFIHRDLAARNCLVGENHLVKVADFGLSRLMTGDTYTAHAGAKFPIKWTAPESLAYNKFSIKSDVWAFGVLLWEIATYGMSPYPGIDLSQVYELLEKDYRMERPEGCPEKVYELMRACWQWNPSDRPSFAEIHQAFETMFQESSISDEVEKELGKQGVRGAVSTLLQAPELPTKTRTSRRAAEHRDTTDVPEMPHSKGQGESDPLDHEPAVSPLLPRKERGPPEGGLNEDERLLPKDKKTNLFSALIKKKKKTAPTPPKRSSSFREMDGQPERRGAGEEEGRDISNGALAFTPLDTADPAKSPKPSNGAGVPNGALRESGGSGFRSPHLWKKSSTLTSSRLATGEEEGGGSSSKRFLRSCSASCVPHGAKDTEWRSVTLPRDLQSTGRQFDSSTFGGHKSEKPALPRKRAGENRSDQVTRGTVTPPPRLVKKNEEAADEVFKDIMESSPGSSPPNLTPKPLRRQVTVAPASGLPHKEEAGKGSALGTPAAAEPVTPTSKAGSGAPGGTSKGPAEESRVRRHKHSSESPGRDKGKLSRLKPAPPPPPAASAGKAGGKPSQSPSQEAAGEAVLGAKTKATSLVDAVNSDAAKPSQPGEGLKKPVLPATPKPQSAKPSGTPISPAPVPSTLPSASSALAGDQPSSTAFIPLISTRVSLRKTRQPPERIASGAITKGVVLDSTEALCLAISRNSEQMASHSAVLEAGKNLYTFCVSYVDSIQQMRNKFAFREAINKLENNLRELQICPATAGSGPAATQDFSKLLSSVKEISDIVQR

IC50: 8.7 µM
Structure (SMILES): O=C1Nc2ccccc2C1=C1Nc2ccccc2C1=NOCC(O)CO (stereo not shown) [E804]

— publication PMC3361532 (2012)
